Test results as given in US20230390220A1, “MONOAMINE OXIDASE BLOCKADE THERAPY FOR TREATING CANCER THROUGH REGULATING ANTITUMOR T CELL IMMUNITY” (THE REGENTS OF THE UNIVERSITY OF CALIFORNIA, priority 2020, published 2023).

Legend:
CD8 T cells = test: In vitro mouse CD8 T cell activation with anti-CD3 (ELISA / flow cytometry); assay type: cell-based; conditions: for CD8 T cell hyperactivation (expression of CD25, Granzyme B, IL-2, IFN-γ): B6 wildtype CD8 T cells, anti-CD3, Phe 10 μM, Moc 200 μM, Clo 20 μM; for IL-2 and IFN-γ production: Maoa-WT CD8 T cells, 4-day time course post anti-CD3, treatment 10 μM vs NT
Text: The coating and biotinylated antibodies for the detection of mouse IFN-γ (coating antibody, cat #554424; biotinylated detection antibody, cat #554426) and IL-2 (coating antibody, cat #551216; biotinylated detection antibody, cat #554410) were purchased from BD Biosciences. The streptavidin-HRP conjugate (Cat #18410051) was purchased from Invitrogen. Mouse IFN-γ (Cat #575309) and IL-2 (Cat #575409) standards were purchased from BioLegend. The 3,3′,5,5′-Tetramethylbenzidine (TMB, cat #51200048) substrate was purchased from KPL.

5-HTRs on CD8 T cells = test: Western blot of 5-HTR (MAPK) and TCR signaling in CD8 T cells; assay type: cell-based, mouse; conditions: anti-CD3 2 days, asenapine 10 μM, restimulated 20 minutes
Description: CD8 T cells purified from Maoa-WT and Maoa-KO mice were cultured in vitro in a 24-well plate at 0.5×10^6 cells per well for 2 days, in the presence of plate-bound anti-mouse CD3ε (5 μg/ml), with or without asenapine treatment (10 μM). Cells were then rested on ice for 2 hours and restimulated with plate-bound anti-mouse CD3ε (5 μg/ml) for 20 minutes. Total protein was extracted using a lysis buffer containing 20 mM HEPES (pH 7.6), 150 mM NaCl, 1 mM EDTA, 1% TritonX-100, and protease/phosphatase inhibitor cocktail (Cat #5872S, Cell Signaling). Nuclear protein was extracted using a Nuclear Protein Extraction Kit (Cat #P178833, Thermo Fisher Scientific). Protein concentration was measured a BCA Assay Kit (Cat #23228 and Cat #1859078, Thermo Fisher Scientific). Equal amounts of protein were resolved on a 10% SDS-PAGE gel and then transferred to a PVDF membrane by electrophoresis. MAO-A antibody was purchased from Abcam (Cat #ab126751, Clone EPR7101). […] Signals were visualized with autoradiography using an ECL system (Cat #RPN2232, Thermo Fisher Scientific). The data were analyzed using an Image Lab software (Bio-Rad).

B16-OVA melanoma [1] = test: Syngeneic B16-OVA melanoma tumor model, tumor growth; assay type: in vivo, mouse; conditions: for Tumor growth, B16-OVA melanoma prevention model: i.p., phenelzine 30 mg/kg/day, moclobimide 50 mg/kg/day, clorgyline 50 mg/kg/day
Description: (§1) B16-OVA melanoma cells (1×10^6 per animal) or MC38 colon cancer cells (3×10^5 per animal) were subcutaneously (s.c.) injected into experimental mice to form solid tumors. In some experiments, mice received intraperitoneal (i.p.) injection of MAOIs (i.e., phenelzine, 30 mg/kg/day; moclobimide, 50 mg/kg/day; or clorgyline, 50 mg/kg/day) to block MAO-A activity. In some experiments, mice received i.p. injection of anti-mouse CD8α antibodies (200 μg/animal/bi-weekly) to deplete CD8 T cells; mice received i.p. injection of isotype antibodies were included as controls. In some experiments, mice received i.p. injection of anti-mouse PD-1 antibodies (300 μg/animal/bi-weekly) to block PD-1; mice received i.p. injection of isotype antibodies were included as controls.
(§2) During an experiment, tumor growth was monitored twice per week by measuring tumor size using a Fisherbrand™ Traceable™ digital caliper (Thermo Fisher Scientific); tumor volumes were calculated by formula ½×L×W^2. At the end of an experiment, tumor-infiltrating immune cells were isolated for analysis using QPCR, flow cytometry, and/or scRNASeq. In some experiments, sera were also collected for serotonin measurement.

[2] = system: tumor-infiltrating CD8 T cells; conditions: B16-OVA, day 17, phenelzine vs NT, FACS
Description: as §1

Maoa-WT CD8 T cells = conditions: 24-hour post anti-CD3 stimulation, phenelzine 10 μM vs NT, ELISA
Description: Spleen and lymph node cells were harvested from Maoa-KO or Maoa-WT (B6 wildtype) mice and subjected to MACS using a Mouse CD8 T Cell Isolation Kit (Cat #120117044, Miltenyi Biotec) following the manufacturer's instructions. Purified mouse CD8 T cells were cultured in vitro in C10 medium, in a 24-well plate at 0.5×10^6 cells per ml medium per well, in the presence of plate-bound anti-mouse CD3ε (5 μg/ml) for up to 4 days. At indicated time points, cells were collected for flow cytometry analysis of surface marker expression and intracellular effector molecule production, and for QPCR analysis of mRNA expression; cell culture supernatants were collected for ELISA analysis of effector cytokine production. In experiments studying serotonin signaling, cells were cultured in C10 medium made of serotonin-depleted FBS that was pretreated overnight with charcoal-dextran (Cat #C6241, Sigma; 1 gram per 50 ml FBS). L-Ascorbic acid (Cat #A4403, Sigma; 100 μM) was added to C10 medium to stabilize T cell-produced or supplemented serotonin. […] In some experiments, cells were supplemented with exogenous serotonin (SER, 10 μM) to stimulate serotonin signaling. In some experiments, cells were treated with serotonin receptor antagonist asenapine (ASE, 10 μM) to block serotonin receptor signaling. […] The absorbance at 450 nm was measured using an Infinite M1000 microplate reader (Tecan).

[3] = system: A375-A2-ESO-FG human melanoma cells
Description: The A375-A2-ESO-FG human melanoma cells (10×10^6 cells per animal) were s.c. injected into NSG mice to form solid tumors. In some experiments, mice received phenelzine treatment through i.p. injection (30 mg/kg/day). In some experiments, mice received adoptive transfer of ESO-T cells through r.o. injection (4×10^6 cells per recipient mouse). Prior to ESO-T cell adoptive transfer, recipient mice were preconditioned with total body irradiation (100 rads). During an experiment, tumor growth was monitored twice per week by measuring tumor size using a Fisherbrand™ Traceable™ digital caliper; tumor volumes were calculated by formula ½×L×W^2.

MC38 colon cancer = system: MC38 colon cancer
Description: as §1, §2

B16-OVA melanoma [4] = conditions: Maoa-WT mice
Description: as §1, §2
HPLC was used to measure intratumoral and serum serotonin levels as previously described (47, 48). Briefly, tumors and sera were collected from experimental mice at indicated time points, and were snap-frozen using liquid nitrogen. Frozen samples were thawed and homogenized using methanol and acetonitrile by vortexing. Homogenized samples were centrifuged, and supernatants were collected to new tubes and evaporated under a stream of argon. Dried sample pellets were then reconstituted in HPLC running buffer and were ready for analysis. Serotonin concentration was quantified using a C 18 column by reverse phase HPLC (System Gold 166P detector, Beckman Coulter)

[5] = B6 wildtype mice, combination study with anti-PD-1 (Iso, Phe+Iso, αPD-1, Phe+αPD-1)

CN1CC2c3ccccc3Oc3ccc(Cl)cc3C2C1 (stereo not drawn) [asenapine]
IL-2 and IFN-γ production difference between Maoa-WT and Maoa-KO CD8 T cells (CD8 T cells; day 2 post anti-CD3 stimulation, asenapine 10 μM, ELISA): eliminated the cytokine production difference between Maoa-WT and Maoa-KO CD8 T cells | Enhancement of MAPK signaling (ERK phosphorylation) and TCR downstream signaling (NFAT, NF-κB, c-Jun) in Maoa-KO T cells (5-HTRs on CD8 T cells): largely abrogated

C#CCN(C)CCCOc1ccc(Cl)cc1Cl [clorgyline]
CD8 T cell hyperactivation (expression of CD25, Granzyme B, IL-2, IFN-γ) (CD8 T cells): efficiently induced CD8 T cell hyperactivation | Tumor growth, B16-OVA melanoma prevention model (B16-OVA melanoma [1]; B6 wildtype mice): dramatically suppressed tumor growth

O=C(NCCN1CCOCC1)c1ccc(Cl)cc1 [mocolobemide, moclobemide]
CD8 T cell hyperactivation (expression of CD25, Granzyme B, IL-2, IFN-γ) (CD8 T cells): efficiently induced CD8 T cell hyperactivation | Tumor growth, B16-OVA melanoma prevention model (B16-OVA melanoma [1]; B6 wildtype mice): dramatically suppressed tumor growth

NNCCc1ccccc1 [phenelzine]
Expression of exhaustion markers (PD-1) on tumor-infiltrating CD8 T cells [2]: reduced expression of exhaustion markers | Production of effector molecules (IFN-γ and Granzyme B) by tumor-infiltrating CD8 T cells [2]: enhanced production of effector molecules | Serotonin levels in CD8 T cell cultures (Maoa-WT CD8 T cells): recapitulated the serotonin overproduction phenotype of Maoa-KO CD8 T cells | CD8 T cell hyperactivation (expression of CD25, Granzyme B, IL-2, IFN-γ) (CD8 T cells): efficiently induced CD8 T cell hyperactivation | IL-2 and IFN-γ production (CD8 T cells; ELISA): increased production of the effector cytokines IL-2 and IFN-γ | A375-A2-ESO-FG tumor growth without ESO-T cell adoptive transfer ([3]; NSG mice without ESO-T cells, phenelzine vs NT): no tumor suppression was observed | A375-A2-ESO-FG tumor growth with ESO-T cell adoptive transfer ([3]; NSG mice, ESO-T cells, phenelzine i.p. 30 mg/kg/day vs NT): effectively suppressed tumor growth | MC38 tumor growth (MC38 colon cancer; [5]): completely suppressed tumor growth as effectively as the anti-PD-1 treatment | MC38 tumor growth in immunodeficient NSG mice (MC38 colon cancer; NSG mice, phenelzine vs NT): did not suppress the growth | B16-OVA tumor growth (B16-OVA melanoma [1]; [5]): significantly suppressed tumor growth at a level comparable to the anti-PD-1 treatment | Tumor growth, B16-OVA melanoma prevention model (B16-OVA melanoma [1]; B6 wildtype mice): dramatically suppressed tumor growth | Tumor progression, pre-established B16-OVA melanoma solid tumors (B16-OVA melanoma [1]; B6 wildtype mice, phenelzine vs NT): effectively suppressed tumor progression | B16-OVA tumor growth in immunodeficient NSG mice (B16-OVA melanoma [1]; NSG mice, phenelzine vs NT): did not suppress the growth | Tumor suppression with CD8 T cells depleted (B16-OVA melanoma [1]; tumor-bearing B6 wildtype mice, phenelzine + anti-CD8): no tumor suppression was observed | Phenelzine treatment-induced accumulation of serotonin in the tumor after depletion of CD8 T cells (B16-OVA melanoma [4]; anti-CD8 antibody depletion, day 14, HPLC): largely abolished | Serum serotonin levels (B16-OVA melanoma [4]; day 14, with or without phenelzine and anti-CD8, HPLC): no significant changes in serotonin levels in serum | Intratumoral serotonin levels (B16-OVA melanoma [4]; day 14 post tumor challenge, phenelzine vs NT, HPLC): increased levels of serotonin

NCCc1c[nH]c2ccc(O)cc12 [serotonin]
IL-2 and IFN-γ production (CD8 T cells; ELISA): T cell hyperactivation and elevated production of IL-2 and IFN-γ
